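Growth conditions: 96-well plates. Treatment: test compound, 48 hours, 5 concentrations. Analysis: linear interpolation between bracketing concentrations; unreached endpoints set to highest concentration. The concentration for 50% growth inhibition is given as GI50. TGI marks complete inhibition of growth.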
Key:
Test in all cases: growth of human tumour cells (NCI), 48 h
KM12 colon = tested on: KM12 colon
HS 578T breast = tested on: HS 578T breast
IGROV1 ovarian = tested on: IGROV1 ovarian
MOLT-4 leukemia = tested on: MOLT-4 leukemia
PC-3 prostate = tested on: PC-3 prostate
SK-MEL-5 melanoma = tested on: SK-MEL-5 melanoma
RXF 393 renal = tested on: RXF 393 renal
UO-31 renal = tested on: UO-31 renal
NCI-H460 lung = tested on: NCI-H460 lung
HCC-2998 colon = tested on: HCC-2998 colon
A549 NSCLC = tested on: A549 NSCLC
MCF7 breast = tested on: MCF7 breast
SR leukemia = tested on: SR leukemia
SK-MEL-2 melanoma = tested on: SK-MEL-2 melanoma
K-562 leukemia = tested on: K-562 leukemia
OVCAR-8 ovarian = tested on: OVCAR-8 ovarian
SF-295 CNS = tested on: SF-295 CNS
HOP-62 NSCLC = tested on: HOP-62 NSCLC
M14 melanoma = tested on: M14 melanoma
T-47D breast = tested on: T-47D breast
MDA-MB-231 breast = tested on: MDA-MB-231 breast
HCT-15 colon = tested on: HCT-15 colon
OVCAR-5 ovarian = tested on: OVCAR-5 ovarian
TK-10 renal = tested on: TK-10 renal
OVCAR-4 ovarian = tested on: OVCAR-4 ovarian
CAKI-1 renal = tested on: CAKI-1 renal
NCI-H522 lung = tested on: NCI-H522 lung

Cc1ccc(Cl)cc1-c1nc(N)nc(Nc2ccc(Br)cc2)n1
GI50 (KM12 colon): 50.3 nM
TGI (KM12 colon): > 100000 nM
GI50 (HS 578T breast): 45.5 nM
TGI (HS 578T breast): > 48500 nM
GI50 (IGROV1 ovarian): 150 nM
TGI (IGROV1 ovarian): > 100000 nM
GI50 (MOLT-4 leukemia): 88.3 nM
TGI (MOLT-4 leukemia): > 22100 nM
GI50 (PC-3 prostate): 53.8 nM
TGI (PC-3 prostate): > 100000 nM
GI50 (SK-MEL-5 melanoma): 41.1 nM
TGI (SK-MEL-5 melanoma): > 100000 nM
GI50 (RXF 393 renal): 30.9 nM
TGI (RXF 393 renal): 3990 nM
GI50 (UO-31 renal): 73.3 nM
TGI (UO-31 renal): > 100000 nM
GI50 (NCI-H460 lung): 38.5 nM
TGI (NCI-H460 lung): > 38700 nM
GI50 (HCC-2998 colon): 160 nM
GI50 (A549 NSCLC): 66.3 nM
TGI (A549 NSCLC): > 100000 nM
GI50 (MCF7 breast): 45.6 nM
TGI (MCF7 breast): > 100000 nM
GI50 (SR leukemia): 36.1 nM
TGI (SR leukemia): > 100000 nM
GI50 (SK-MEL-2 melanoma): 69.2 nM
TGI (SK-MEL-2 melanoma): > 100000 nM
GI50 (K-562 leukemia): 42.2 nM
TGI (K-562 leukemia): > 100000 nM
GI50 (OVCAR-8 ovarian): 74.5 nM
TGI (OVCAR-8 ovarian): > 100000 nM
GI50 (SF-295 CNS): 41 nM
TGI (SF-295 CNS): > 100000 nM
GI50 (HOP-62 NSCLC): 72.3 nM
TGI (HOP-62 NSCLC): > 100000 nM
GI50 (M14 melanoma): 41.4 nM
TGI (M14 melanoma): > 100000 nM
GI50 (T-47D breast): 22600 nM
TGI (T-47D breast): > 100000 nM
GI50 (MDA-MB-231 breast): 139 nM
TGI (MDA-MB-231 breast): > 100000 nM
GI50 (HCT-15 colon): 53.5 nM
TGI (HCT-15 colon): > 100000 nM
GI50 (OVCAR-5 ovarian): 358 nM
TGI (OVCAR-5 ovarian): > 100000 nM
GI50 (TK-10 renal): 3290 nM
TGI (TK-10 renal): > 100000 nM
GI50 (OVCAR-4 ovarian): 274 nM
TGI (OVCAR-4 ovarian): > 100000 nM
GI50 (CAKI-1 renal): 19200 nM
TGI (CAKI-1 renal): > 100000 nM
GI50 (NCI-H522 lung): 33.2 nM

From PubChem BioAssay (NCI)
